From patent US6699825B2, “Acidic hard-surface antimicrobial cleaner” (S.C. Johnson & Son, Inc., priority 2001, dated 2004)

What was measured:
Klebsiella pneumoniae = experiment: EPA Non-Food Contact Sanitizer Test DIS/TSS-10, glass slide, 5% fetal bovine serum; assay type: cell-based; conditions: K. pneumoniae; dilute aqueous acidic solution; 1-minute contact
Protocol: (§1) Low-residue hard surface cleaner formulations of the present invention were evaluated for sanitizing efficacy under the United States Environmental Protection Agency's Non-Food Contact Sanitizer Test, DIS/TSS-10 (Jan. 7, 1982). As noted in specific examples, a 30 second or 1 minute contact time using a glass slide test surface was used. As these formulas are to be used as one-step antimicrobial cleaners, fetal bovine serum was added to the innoculum at a concentration of 5.0 percent by weight to simulate an organic soil load such as one would expect to find on a typical non-food contact surface prior to cleaning.
(§2) Efficacy of the test solutions was evaluated versus Staphylococcus aureus (S. aureus), Klebsiella pneumoniae (K. pneumoniae), and Salmonella choleraesius (S. choleraesius). As a control, parallel tests were conducted using a 0.01 percent solution of Triton X-100 (isooctylphenoxyl-polyethoxyethanol with 9-10 moles of oxyethylene) in an identical manner as the test solutions. The results for the test solutions were compared to the control and are reported as “Log Kill” of the test organism versus the control counts in Table 2. A “Log Kill” of 5 means that 99.999 percent of the organism has been killed.

Staphylococcus aureus = experiment: as above; assay type: cell-based; conditions: S. aureus; dilute aqueous acidic solution; 1-minute contact
Protocol: as §1, §2

[1] = cited from earlier work

For `OCc1ccccc1` [BA, Benzyl Alcohol], the “antimicrobial synergy with low levels of organocarboxylic acids” value (“antimicrobial synergy with low levels” for short) (Klebsiella pneumoniae) is given as “enhanced biocidal efficacy”, the “antimicrobial synergy with low levels” value (Staphylococcus aureus) is given as “enhanced biocidal efficacy” and the “Solubility in water at 20-25° C.” value [1] is given as 3.8%.
For `CCOCCOCCO` [Carbitol, Diethylene Glycol Ethyl Ether], the “antimicrobial synergy with low levels” value (Klebsiella pneumoniae) is given as “no significant antimicrobial synergy”, the “antimicrobial synergy with low levels” value (Staphylococcus aureus) is given as “no significant antimicrobial synergy” and the miscibility in water [1] is given as “completely miscible”. For the same molecule, the “Solubility in water at 20-25° C.” value [1] was “Infinite”.
For `CCCCCCOCCOCCO` [DEGHE, Diethylene Glycol n-Hexyl Ether], the “antimicrobial synergy with low levels” value (Klebsiella pneumoniae) was “enhanced biocidal efficacy” and the “antimicrobial synergy with low levels” value (Staphylococcus aureus) was “enhanced biocidal efficacy”.
In the case of `COC(C)COC(C)CO` (centres unmarked) [DPM, Dipropylene Glycol Methyl Ether], the “antimicrobial synergy with low levels” value (Klebsiella pneumoniae) is given as “no significant antimicrobial synergy”, the “antimicrobial synergy with low levels” value (Staphylococcus aureus) is given as “no significant antimicrobial synergy” and the miscibility in water [1] is given as “completely miscible”. For the same molecule, the “Solubility in water at 20-25° C.” value [1] was “Infinite”.
In the case of `CCCCCOCCO` [EGPE, Ethylene Glycol n-Pentyl Ether], the “antimicrobial synergy with low levels” value (Klebsiella pneumoniae) is given as “enhanced biocidal efficacy”, the “antimicrobial synergy with low levels” value (Staphylococcus aureus) is given as “enhanced biocidal efficacy” and the “Solubility in water at 20-25° C.” value [1] is given as 3.4%.
For `OCCOc1ccccc1` [Eph, Ethylene Glycol Phenyl Ether], the “antimicrobial synergy with low levels” value (Klebsiella pneumoniae) is given as “enhanced biocidal efficacy”, the “antimicrobial synergy with low levels” value (Staphylococcus aureus) is given as “enhanced biocidal efficacy” and the “Solubility in water at 20-25° C.” value [1] is given as 2.3%.
In the case of `CC(C)O` [IPA, Iso-propanol], the “antimicrobial synergy with low levels” value (Klebsiella pneumoniae) is listed as “no significant antimicrobial synergy”, the “antimicrobial synergy with low levels” value (Staphylococcus aureus) is listed as “no significant antimicrobial synergy” and the miscibility in water [1] is listed as “completely miscible”. For the same molecule, the “Solubility in water at 20-25° C.” value [1] was “Infinite”.
